The text below walks through data of patent US20240173432A1, “Compositions and Methods for Treatment of Myotonic Dystrophy Type 1 with CRISPR/SluCas9” (Vertex Pharmaceuticals Incorporated, priority 2021, published 2024).

Series [1] has as its system 3′ UTR of the human DMPK gene. The series is described as follows: Single-cut screening: indel editing efficiency by Sanger sequencing and ICE analysis in primary DM1 patient myoblasts. The class given is cell-based. The conditions noted are these: vehicle-treated samples; for Indel efficiency: single SluCas9 sgRNA RNP in primary DM1 patient myoblasts, Sanger sequencing and ICE analysis; for indel efficiency (Sanger sequencing and ICE analysis): single-cut, SluCas9 RNP, 72 hrs post nucleofection, wild-type allele. The gist of the method: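 Indels were estimated by ICE from Sanger chromatograms of PCR amplicons covering the DMPK 3′ UTR wild-type allele, using only vehicle-treated samples; sgRNAs with R2<0.9 are flagged. Samples came from primary DM1 patient myoblasts (2 × 10^5) harvested 72 h after nucleofection with 30 pmol SluCas9 and 90 pmol single sgRNA RNP.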

Series [2] concerns CAG foci in primary DM1 patient myoblasts. The series is described as follows: Single-cut screening: CAG foci staining. The format is cell-based, human. The conditions noted are these: single sgRNA; for % of CAG foci positive nuclei (DNA-PKi): DNA-PKi treated. The gist of the method: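 Primary DM1 patient myoblasts were PFA-fixed and hybridized with […] (1 ng/μL, 15 min at 80° C) in 30% formamide/2×SSC, followed by anti-MBNL1 immunostaining and Hoechst counterstain. CAG RNA foci were quantified by high-content confocal imaging after single-cut SuCas9 sgRNA editing.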

In series [3] the test system is CUG foci in primary DM1 patient myoblasts. The series is described as follows: Single-cut screening: FISH staining of CUG RNA foci. Particulars: single sgRNA, primary DM1 patient myoblasts; for % of CUG foci free nuclei (DNA-PKi): DNA-PKi treated. The format is cell-based, human. The essentials:
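CD56-purified primary DM1 patient myoblasts nucleofected with SluCas9:sgRNA RNP (30:90 pmol, single-cut), then DMSO or 3 μM DNA-PK inhibitor for 48 h. At 72 h post-nucleofection, cells fixed and stained for CUG foci with Cy3-PNA(CAG)5 probe (1 ng/μL, 80 °C), co-stained for MBNL1 and Hoechst, imaged by high-content confocal microscopy.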

Turning to “CCAGCCGGCTCCGCCCGCTTCG (listed as DNA, chemistry not fully specified) [SluD56]”, in series [1], the Indel efficiency is given as 70%; the “indel efficiency (Sanger sequencing and ICE analysis)” value was “high editing IN4DEL efficiency”. Besides, in series [2], the “% of CAG foci positive nuclei (DNA-PKi)” value stood at 2.91% and the “% of CAG foci positive nuclei (Vehicle)” value was 1.04%. Further, in series [3], the “% of CUG foci free nuclei (DNA-PKi)” value is 31.7% and the “% of CUG foci free nuclei (Vehicle)” value was 13.88%.
In series [1], “TGGGCGGAGACCCACGCTCGGA (guide RNA; chemistry not fully specified) [SluU25]” had an Indel efficiency of 38%. Moreover, in series [2], the “% of CAG foci positive nuclei (DNA-PKi)” value came to 1.29% and the “% of CAG foci positive nuclei (Vehicle)” value was found to be 0.92%. Besides, in series [3], the “% of CUG foci free nuclei (DNA-PKi)” value is given as 47.96% and the “% of CUG foci free nuclei (Vehicle)” value turned out to be 23.15%.
“GCCCGCCCCCTAGCggccgggg (guide RNA; as printed in the source, key not given here) [SluU40]”: the Indel efficiency in series [1] worked out at 3%. In series [2], the “% of CAG foci positive nuclei (DNA-PKi)” value was 2.01% and the “% of CAG foci positive nuclei (Vehicle)” value came to 1%. In series [3], the “% of CUG foci free nuclei (DNA-PKi)” value stood at 25.77% and the “% of CUG foci free nuclei (Vehicle)” value worked out at 15.29%.
The like results for “CCCCTCCTCACTTGCGCTGCTC (guide RNA; chemistry not fully specified) [SluD47]” were, in that order, 18%, 1.11%, 1%, 28.63% and 8.95%.
Take “GTGGGGACAGACAATAAATACC (listed as DNA, chemistry not fully specified) [SluD83]”: in series [1], the Indel efficiency was determined as 70%; the “indel efficiency (Sanger sequencing and ICE analysis)” value was “high editing IN4DEL efficiency”. Further, in series [2], the “% of CAG foci positive nuclei (DNA-PKi)” value was 1.51% and the “% of CAG foci positive nuclei (Vehicle)” value was 1.64%. Further, in series [3], the “% of CUG foci free nuclei (DNA-PKi)” value turned out to be 34% and the “% of CUG foci free nuclei (Vehicle)” value is reported as 19.15%.
Substance “GGCCCGCCCCCTAGCggccggg (guide RNA; as printed in the source, key not given here) [SluU38]” gave an Indel efficiency in series [1] of 2%. Moreover, in series [2], the “% of CAG foci positive nuclei (DNA-PKi)” value is given as 1.56% and the “% of CAG foci positive nuclei (Vehicle)” value is reported as 0.68%. In series [3], the “% of CUG foci free nuclei (DNA-PKi)” value turned out to be 32.86% and the “% of CUG foci free nuclei (Vehicle)” value turned out to be 7.24%.
The like results for “CAAAACGTGGATTGGGGTTGTT (guide RNA; chemistry not fully specified) [SluD72]” were, in that order, 5%, 2.33%, 2.62%, 28.82% and 16.2%.
Turning to “CCAAAACGTGGATTGGGGTTGT (listed as DNA, chemistry not fully specified) [SluD73]”, in series [1], the Indel efficiency is given as 65%; the “indel efficiency (Sanger sequencing and ICE analysis)” value was “high editing IN4DEL efficiency”. Also, in series [2], the “% of CAG foci positive nuclei (DNA-PKi)” value is 2.33% and the “% of CAG foci positive nuclei (Vehicle)” value was determined as 2.52%. In series [3], the “% of CUG foci free nuclei (DNA-PKi)” value is 32.52% and the “% of CUG foci free nuclei (Vehicle)” value came out at 12.95%.
For “GCTCGGAGCGGTTGTGAACTGG (listed as DNA, chemistry not fully specified) [SluU21]”, in series [1], the Indel efficiency came to 80%; the “indel efficiency (Sanger sequencing and ICE analysis)” value is listed as “high editing IN4DEL efficiency”. For the same substance, in series [2], the “% of CAG foci positive nuclei (DNA-PKi)” value stood at 0.66% and the “% of CAG foci positive nuclei (Vehicle)” value amounted to 0.68%. In series [3], the “% of CUG foci free nuclei (DNA-PKi)” value came to 54.83% and the “% of CUG foci free nuclei (Vehicle)” value turned out to be 23.65%.
Consider “GCCCCCTAGCggccggggaggg (guide RNA; as printed in the source, key not given here) [SluU42]”, for which the Indel efficiency in series [1] is 15%. Moreover, in series [2], the “% of CAG foci positive nuclei (DNA-PKi)” value worked out at 1.62% and the “% of CAG foci positive nuclei (Vehicle)” value is given as 0.86%. Further, in series [3], the “% of CUG foci free nuclei (DNA-PKi)” value stood at 42.7% and the “% of CUG foci free nuclei (Vehicle)” value stood at 7.05%.
The like results for “TTTATTCGCGAGGGTCGGGGGT (guide RNA; chemistry not fully specified) [SluD91]” were, in that order, 33%, 4.23%, 1%, 21.28% and 22.42%.
On the same counts, the results for “ACGGCCCGGCTTGCTGCCTTCC (guide RNA; chemistry not fully specified) [SluD17]” are 33%, 1.47%, 2.07%, 21.7% and 12.25%.
The substance “GCGCGGCTTCTGTGCCGTGCCC (guide RNA; chemistry not fully specified) [SluU15]” had an Indel efficiency in series [1] of 4%. In addition, in series [2], the “% of CAG foci positive nuclei (DNA-PKi)” value amounted to 1.28% and the “% of CAG foci positive nuclei (Vehicle)” value worked out at 0.75%. For the same substance, in series [3], the “% of CUG foci free nuclei (DNA-PKi)” value turned out to be 31.71% and the “% of CUG foci free nuclei (Vehicle)” value was determined as 7.97%.
The like results for “CCCCGGGCACTCAGTCTTCCAA (guide RNA; chemistry not fully specified) [SluU12]” were, in that order, 20%, 1.38%, 1.29%, 50.23% and 16.44%.
On the same counts, the results for “GGCGCGGCTTCTGTGCCGTGCC (guide RNA; chemistry not fully specified) [SluU16]” are 7%, 1.73%, 1.28%, 27.5% and 10.73%.
The like results for “gccccgttcgccggccgcggac (guide GCCCCGTTCGCCGGCCGCGGAC; listed as DNA, chemistry not fully specified) [SluU58]” were, in that order, 36%, 1.51%, 1.35%, 49.37% and 16.57%.
In series [1], “GCACTTTGCGAACCAACGATAG (guide RNA; chemistry not fully specified) [SluD28]” showed an Indel efficiency of 48%. For the same substance, in series [2], the “% of CAG foci positive nuclei (DNA-PKi)” value is listed as 1.29% and the “% of CAG foci positive nuclei (Vehicle)” value is reported as 1.23%. In series [3], the “% of CUG foci free nuclei (DNA-PKi)” value is reported as 31.88% and the “% of CUG foci free nuclei (Vehicle)” value amounted to 11.31%.
The like results for “CTCCGAGAGCAGCGCAAGTGAG (guide RNA; chemistry not fully specified) [SluD52]” were, in that order, 6%, 1.57%, 1.26%, 26.8% and 7.59%.
The like results for “ACCTCGTCCTCCGACTCGCTGA (guide RNA; chemistry not fully specified) [SluD65]” were, in that order, 36%, 0.92%, 1.33%, 32.37% and 18.5%.
On to “cgcggccggcgaacggggcTCG (guide RNA; as printed in the source, key not given here) [SluU59]”, for which, in series [1], the Indel efficiency was 92%; the “indel efficiency (Sanger sequencing and ICE analysis)” value is reported as “high editing IN4DEL efficiency”. In series [2], the “% of CAG foci positive nuclei (DNA-PKi)” value was determined as 1.4% and the “% of CAG foci positive nuclei (Vehicle)” value turned out to be 1.35%. In addition, in series [3], the “% of CUG foci free nuclei (DNA-PKi)” value worked out at 72.56% and the “% of CUG foci free nuclei (Vehicle)” value was found to be 23.05%.
Regarding “CGCGCCAGACGCTCCCCAGAGC (listed as DNA, chemistry not fully specified) [SluD34]”, in series [1], the Indel efficiency is listed as 71%; the “indel efficiency (Sanger sequencing and ICE analysis)” value was “high editing IN4DEL efficiency”. Further, in series [2], the “% of CAG foci positive nuclei (DNA-PKi)” value was 2.01% and the “% of CAG foci positive nuclei (Vehicle)” value turned out to be 3.9%. In addition, in series [3], the “% of CUG foci free nuclei (DNA-PKi)” value is reported as 31.92% and the “% of CUG foci free nuclei (Vehicle)” value stood at 15%.
As to “TCAGCCTGGCCGAAAGAAAGAA (guide RNA; chemistry not fully specified) [SluD04]”, the Indel efficiency in series [1] was 1%. Moreover, in series [2], the “% of CAG foci positive nuclei (DNA-PKi)” value stood at 1.94% and the “% of CAG foci positive nuclei (Vehicle)” value amounted to 1.17%. Further, in series [3], the “% of CUG foci free nuclei (DNA-PKi)” value is listed as 19.38% and the “% of CUG foci free nuclei (Vehicle)” value stood at 13.29%.
